Structures can show the parent of a compound that is named as a salt.
molecular target: T1, N-formyl peptide receptor 2 (Homo sapiens, UniProt P25090); assay: FPRL1 binding inhibitor potency, dose response, cell-based, FPR counter-screen, fluorescent ligand (AID 520)
T1 sequence (P25090 whole entry): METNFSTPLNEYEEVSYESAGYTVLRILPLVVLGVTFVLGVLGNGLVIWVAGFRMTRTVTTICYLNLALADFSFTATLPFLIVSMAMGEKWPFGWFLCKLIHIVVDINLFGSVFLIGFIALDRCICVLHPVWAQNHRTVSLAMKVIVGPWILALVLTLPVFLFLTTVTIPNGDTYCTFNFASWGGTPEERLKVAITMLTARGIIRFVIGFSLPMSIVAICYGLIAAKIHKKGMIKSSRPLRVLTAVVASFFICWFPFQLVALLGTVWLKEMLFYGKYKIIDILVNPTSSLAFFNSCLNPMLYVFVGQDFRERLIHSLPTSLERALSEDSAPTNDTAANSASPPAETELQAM

| Compound | IC50 [µM] | Ki [µM] |
| --- | --- | --- |
| COC(=O)Cc1n[nH]c2c1C(C1C=CCCC1)C(C#N)C(=N)O2 (stereo unspecified) [2-[6-amino-5-cyano-4-(1-cyclohex-2-enyl)-2,4-dihydropyrano[2,3-c]pyrazol-3-yl]acetic acid methyl ester] | > 66.7 | > 40.3 |
| COc1cccc(C2C(C(=O)c3cc4ccccc4o3)C(=O)C(=O)N2c2cc(C)on2)c1OC (stereo unspecified) [3-(1-benzofuran-2-carbonyl)-2-(2,3-dimethoxyphenyl)-4-hydroxy-1-(5-methyl-1,2-oxazol-3-yl)-2H-pyrrol-5-one] | > 66.7 | > 40.3 |
| COCCN1Cc2cccc(C(=O)NCc3ccc4c(c3)OCO4)c2C1=O [N-(1,3-benzodioxol-5-ylmethyl)-2-(2-methoxyethyl)-3-oxoisoindoline-4-carboxamide] | > 66.7 | – |
| COc1ccc(CC(=O)Nc2ccc(-c3nnc(-c4ccc(C)cc4)o3)cc2)cc1 [2-(4-methoxyphenyl)-N-[4-[5-(4-methylphenyl)-1,3,4-oxadiazol-2-yl]phenyl]acetamide] | > 66.7 | – |
| CCOc1ccc(C2C(C(=O)c3ccco3)C(=O)C(=O)N2Cc2cccnc2)cc1 (stereo unspecified) [2-(4-ethoxyphenyl)-3-(furan-2-carbonyl)-4-hydroxy-1-(pyridin-3-ylmethyl)-2H-pyrrol-5-one] | > 66.7 | > 40.3 |
| CCCOc1ccc2c(=O)c(N3C(=O)c4ccccc4C3=O)c(C)oc2c1 [2-(2-methyl-4-oxidanylidene-7-propoxy-chromen-3-yl)isoindole-1,3-dione] | > 66.7 | – |
| Cc1cc2oc(C(=O)NC3CCS(=O)(=O)C3)c(C)c2cc1C (stereo unspecified) [MLS000063255] | > 66.7 | – |
| CCOc1ccc(C2C(C(=O)c3cccs3)C(=O)C(=O)N2CCCn2ccnc2)cc1 (stereo unspecified) [2-(4-ethoxyphenyl)-1-(3-imidazol-1-ylpropyl)-4-oxidanyl-3-thiophen-2-ylcarbonyl-2H-pyrrol-5-one] | > 66.7 | > 40.3 |
| O=C(NC1CCCC1)C1CC1c1ccccc1 (stereo unspecified) [MLS000061073] | > 66.7 | – |
| CCc1c(C)nc2c(C#N)c(C)[nH]n2c1=O [SMR000013340] | > 66.7 | – |
| CCCOc1ccc(C2C(C(=O)c3ccc(C)o3)C(=O)C(=O)N2CCCn2ccnc2)cc1 (stereo unspecified) [1-(3-imidazol-1-ylpropyl)-3-(5-methylfuran-2-yl)carbonyl-4-oxidanyl-2-(4-propoxyphenyl)-2H-pyrrol-5-one] | > 66.7 | > 40.3 |
| CCN(CCCc1ccccc1)CCCc1ccccc1 [ALVERINE CITRATE SALT] | > 66.7 | – |
| COc1ccccc1Oc1c(C)oc2c(CN(C)C)c(O)ccc2c1=O [8-Dimethylaminomethyl-7-hydroxy-3-(2-methoxy-phenoxy)-2-methyl-chromen-4-one] | > 66.7 | – |
| CC(C)OC(=O)c1nnn(-c2nonc2N)c1CN1CCc2ccccc2C1 [1-(4-amino-1,2,5-oxadiazol-3-yl)-5-(3,4-dihydro-1H-isoquinolin-2-ylmethyl)-4-triazolecarboxylic acid propan-2-yl ester] | > 66.7 | – |
| COC(=O)[C@H](C(C)C)n1c(C)c(C(C)=O)c(C(C)=O)c1C [(2S)-2-(3,4-diacetyl-2,5-dimethyl-1-pyrrolyl)-3-methylbutanoic acid methyl ester] | > 66.7 | – |
| CCCc1nc2ccccc2c2nc(N)nn12 [SMR000073509] | > 66.7 | – |
| Cc1cccc(Nc2ccccc2C(=O)NCc2ccco2)c1C [2-(2,3-dimethylanilino)-N-(2-furanylmethyl)benzamide] | > 66.7 | – |
| O=C1C(=O)N(Cc2ccccc2)C(c2cccnc2)C1C(=O)c1ccco1 (stereo unspecified) [1-Benzyl-4-(furan-2-carbonyl)-3-hydroxy-5-pyridin-3-yl-1,5-dihydro-pyrrol-2-one] | > 66.7 | > 40.3 |
| COc1ccc(S(=O)(=O)NC(C)C(=O)Nc2cccc(C(C)=O)c2)cc1 (stereo unspecified) [MLS000051414] | > 66.7 | – |
| COCCCN1C(=O)C(=O)C(C(=O)c2ccc(OC)cc2C)C1c1cccnc1 (stereo unspecified) [(4E)-4-[(4-methoxy-2-methyl-phenyl)-oxidanyl-methylidene]-1-(3-methoxypropyl)-5-pyridin-3-yl-pyrrolidine-2,3-dione] | > 66.7 | > 40.3 |

Continued, values first:

| IC50 [µM] | Ki [µM] | Compound |
| --- | --- | --- |
| > 66.7 | – | CCOC(=O)C1CCN(Cc2ccc(C(=O)OC)cc2)CC1 [1-(4-carbomethoxybenzyl)isonipecotic acid ethyl ester] |
| > 66.7 | – | O=C(NCc1cccnc1)C1c2ccccc2C(=O)N1C1CCCCCC1 (stereo unspecified) [2-cycloheptyl-3-keto-N-(3-pyridylmethyl)isoindoline-1-carboxamide] |
| > 66.7 | > 40.3 | COC(=O)c1ccc(C2C(C(=O)c3ccc(OC)cc3)C(=O)C(=O)N2Cc2ccco2)cc1 (stereo unspecified) [4-[(3Z)-1-(2-furanylmethyl)-3-[hydroxy-(4-methoxyphenyl)methylidene]-4,5-dioxo-2-pyrrolidinyl]benzoic acid methyl ester] |
| > 66.7 | – | Fc1ccc(-c2nnc3ccc(N4CCCC4)nn23)cc1 [3-(4-fluorophenyl)-6-(1-pyrrolidinyl)-[1,2,4]triazolo[4,3-b]pyridazine] |
| > 66.7 | – | COc1ccc(CN(C(=O)c2ccccc2OC)C2CCS(=O)(=O)C2)cc1 (stereo unspecified) [MLS000041347] |
| > 66.7 | > 40.3 | O=C1C(=O)N(CCCN2CCOCC2)C(c2ccccn2)C1C(=O)c1cc2ccccc2o1 (stereo unspecified) [3-(1-benzofuran-2-carbonyl)-4-hydroxy-1-(3-morpholin-4-ylpropyl)-2-pyridin-2-yl-2H-pyrrol-5-one] |
| > 66.7 | – | Cc1nn(-c2nc3ccccc3s2)c(C)c1Oc1ccccc1O [2-[1-(1,3-benzothiazol-2-yl)-3,5-dimethyl-pyrazol-4-yl]oxyphenol] |
| > 66.7 | > 40.3 | Cc1ccc(C(=O)C2C(=O)C(=O)N(CCN3CCOCC3)C2c2cccnc2)cc1 (stereo unspecified) [(4Z)-4-[(4-methylphenyl)-oxidanyl-methylidene]-1-(2-morpholin-4-ylethyl)-5-pyridin-3-yl-pyrrolidine-2,3-dione] |
| > 66.7 | – | CCn1cc(C(=O)NC2CCC(C)CC2)c(=O)c2cc(S(=O)(=O)N3CCCCC3)ccc21 (stereo unspecified) |
| > 66.7 | – | Cc1cccc(C2CC(c3ccc(Cl)cc3)Nc3nc(N)nn32)c1 (stereo unspecified) [5-(4-chlorophenyl)-7-(3-methylphenyl)-1,5,6,7-tetrahydro-[1,2,4]triazolo[1,5-a]pyrimidin-2-amine] |
| > 66.7 | > 40.3 | CCOc1ccc(C(=O)C2C(=O)C(=O)N(CC3CCCO3)C2c2ccc(C)o2)cc1 (stereo unspecified) [(4Z)-4-[(4-ethoxyphenyl)-hydroxymethylidene]-5-(5-methyl-2-furanyl)-1-(2-oxolanylmethyl)pyrrolidine-2,3-dione] |
| > 66.7 | > 40.3 | C=C(c1ccc(Br)cc1)c1sc(N2CCCC2)nc1O [(5Z)-5-[1-(4-bromophenyl)ethylidene]-2-(1-pyrrolidinyl)-4-thiazolone] |
| > 66.7 | > 40.3 | CCOc1ccc(C(=O)C2C(=O)C(=O)N(CC3CCCO3)C2c2ccco2)cc1 (stereo unspecified) [(4Z)-4-[(4-ethoxyphenyl)-hydroxymethylidene]-5-(2-furanyl)-1-(2-oxolanylmethyl)pyrrolidine-2,3-dione] |
| > 66.7 | – | COc1ccc(-c2nnc(Nc3nc4c(OC)cccc4s3)o2)c(OC)c1 [5-(2,4-dimethoxyphenyl)-N-(4-methoxy-1,3-benzothiazol-2-yl)-1,3,4-oxadiazol-2-amine] |
| > 66.7 | – | Cc1[nH]n2c(=O)c3c(nc2c1-c1ccc(Cl)cc1)CCC3 [MLS000034815] |
| > 66.7 | – | C=CCn1c(NC(=O)c2ccccc2)c(C#N)c2nc3ccccc3nc21 [MLS000057035] |
| > 66.7 | – | COc1ccc(-c2cc(C(F)(F)F)nc(N3CCCCC3)n2)cc1OC [4-(3,4-dimethoxyphenyl)-2-(1-piperidinyl)-6-(trifluoromethyl)pyrimidine] |
| > 66.7 | – | CCOC(=O)c1sc(=S)n2c1[nH]c(=O)c1ccc(C(=O)OC)cc12 [MLS000094734] |

From BindingDB's records for doi:10.7270/Q2DF6PMF (Nmmlsc, 2007)
